Earlier results on six molecules are cited in patent publication US5807732A, “GDP-L-fucose: β-D-galactoside 2-α-L-fucosyltransferases, DNA sequences encoding the same, method for producing the same and a method of genotyping a person” (priority 1995, dated 1998).

Where “and” joins values, the source holds several entries; their conditions need not be identical. Equal entries are not always repeated. Where two headings read alike, the source gives them in different places.

As a reminder, the Km is the substrate concentration at which the rate is half of its maximum.

The test system of series [1] is Secretor α(1,2)fucosyltransferase. The following applies: read-out: Apparent Km.
In series [2] the target is T1, H α(1,2)fucosyltransferase (Homo sapiens, UniProt P19526).
T1 sequence (P19526 1-365): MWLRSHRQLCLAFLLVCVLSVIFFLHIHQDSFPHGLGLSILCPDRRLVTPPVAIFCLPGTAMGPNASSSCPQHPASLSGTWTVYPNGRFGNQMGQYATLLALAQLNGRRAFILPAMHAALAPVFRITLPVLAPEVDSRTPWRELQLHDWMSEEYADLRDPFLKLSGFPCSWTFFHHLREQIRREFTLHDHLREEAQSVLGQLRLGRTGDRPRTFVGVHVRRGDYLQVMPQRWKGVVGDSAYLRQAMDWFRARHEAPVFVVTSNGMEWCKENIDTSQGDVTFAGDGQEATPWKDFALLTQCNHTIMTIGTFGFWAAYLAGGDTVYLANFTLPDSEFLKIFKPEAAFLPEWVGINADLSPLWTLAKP
The settings on record: enzyme H; literature values; read-out: Apparent Km.

The subject of the next series is transfected COS-7 cells. The settings on record: expressed in COS-7 cells.
[3] abbreviates: enzyme Secretor, literature values.

Turning to `CC(=O)N[C@H]1[C@H](O[C@H]2[C@@H](O)[C@@H](CO)O[C@@H](O[C@H]3[C@H](O)[C@@H](O)C(O)O[C@@H]3CO)[C@@H]2O)O[C@H](CO)[C@@H](O)[C@@H]1O[C@@H]1O[C@H](CO)[C@H](O)[C@H](O)[C@H]1O` (stereo partly drawn) [lacto-N-tetraose], the Km in series [1] (setting [3]) is 1600 µM.
Turning to `OC[C@H]1O[C@@H](Oc2ccccc2)[C@H](O)[C@@H](O)[C@H]1O` [phenyl-β-D-galactoside], the Km in series [1] (human Secretor α(1,2)fucosyltransferase partially purified from human milk) is 15100 µM; in series [1] (human Secretor α(1,2)fucosyltransferase purified from human serum), 11400 µM.
Consider `CC(=O)N[C@H]1C(O)O[C@H](CO)[C@@H](O)[C@@H]1O[C@@H]1O[C@H](CO)[C@H](O)[C@H](O)[C@H]1O` (stereo partly drawn) [lacto-N-biose I], for which the Km in series [2] is 2000 µM; in series [1] (setting [3]), 1000 µM.
As to `COC1O[C@H](CO)[C@@H](O)[C@H](O[C@@H]2O[C@H](CO)[C@H](O)[C@H](O)[C@H]2O)[C@H]1NC(C)=O` (stereo partly drawn) [lacto-N-biose I (--O--Me)], the Km in series [2] is 3500 µM; in series [1] (setting [3]), 1400 µM.
For `C[C@@H]1O[C@H](OP(=O)(O)OP(=O)(O)OC[C@H]2O[C@@H](n3cnc4c(=O)[nH]c(N)nc43)[C@H](O)[C@@H]2O)[C@@H](O)[C@H](O)[C@@H]1O` [GDP-fucose], the Km in series [1] (setting [3]) is 108 µM and 123 µM.

B1: H blood group cDNA-encoded α(1,2)fucosyltransferase: human H blood group (FUT1) α(1,2)fucosyltransferase expressed from cDNA in COS-7 cells (protein, UniProt P19526 1-365, looked up)
Galactoside …: MWLRSHRQLCLAFLLVCVLSVIFFLHIHQDSFPHGLGLSILCPDRRLVTPPVAIFCLPGTAMGPNASSSCPQHPASLSGTWTVYPNGRFGNQMGQYATLLALAQLNGRRAFILPAMHAALAPVFRITLPVLAPEVDSRTPWRELQLHDWMSEEYADLRDPFLKLSGFPCSWTFFHHLREQIRREFTLHDHLREEAQSVLGQLRLGRTGDRPRTFVGVHVRRGDYLQVMPQRWKGVVGDSAYLRQAMDWFRARHEAPVFVVTSNGMEWCKENIDTSQGDVTFAGDGQEATPWKDFALLTQCNHTIMTIGTFGFWAAYLAGGDTVYLANFTLPDSEFLKIFKPEAAFLPEWVGINADLSPLWTLAKP
For B1, the “distribution of α(1,2)fucosyltransferase activity between cells and media” value in the series with transfected COS-7 cells is recorded as “largely cell-associated”.
